The values below come from US20110028509A1, “Sulfonamides” (MERCK SERONO SA, priority 2008, published 2011).

The assay deals with T1, CXCR3 (Homo sapiens, UniProt P49682).
T1 sequence (P49682 1-368): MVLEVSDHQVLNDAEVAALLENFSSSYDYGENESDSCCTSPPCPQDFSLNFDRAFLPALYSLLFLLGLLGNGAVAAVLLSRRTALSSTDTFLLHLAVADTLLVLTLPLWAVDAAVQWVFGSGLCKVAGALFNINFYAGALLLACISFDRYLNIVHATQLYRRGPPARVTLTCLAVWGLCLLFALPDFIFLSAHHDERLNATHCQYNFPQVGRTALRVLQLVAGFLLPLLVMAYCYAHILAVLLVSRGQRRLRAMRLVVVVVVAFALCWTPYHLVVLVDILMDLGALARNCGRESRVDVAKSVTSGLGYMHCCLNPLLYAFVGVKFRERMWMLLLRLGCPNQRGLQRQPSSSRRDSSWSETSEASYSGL
Put plainly: CXCR3 Ca2+ mobilization (FLIPR), stable hCXCR3-CHO cell line, I-TAC stimulated. Type of assay: cell-based. Also on record: host or cells: CHO cells stably expressing hCXCR3. The following applies: hCXCR3-CHO cells, I-TAC 100 nM stimulated Ca2+ response; read-out: Ca-ITAC. Here is the method: Human chinese hamster ovary (CHO) cell line stably expressing hCXCR3 was purchased from Euroscreen (Belgium) and culture in HAM's F12 (Invitrogen) containing 10% heat inactivated fetal calf serum (Cancerra, Australia), 50 units ml−1 penicillin, 50 μml−1 streptomycin, (Invitrogen, USA) and 400 μg/ml geneticin (G418) (Calbiochem, San Diego), according to the manufacturer.
CXCR3Ca^2+ mobilization was measured using a stable hCXCR3—CHO cell line and a microtiter-plate based assay using FLIPR^TETRA™ (Molecular Devices). In more detail, cells were harvested and plated into black 384-well plates (Becton-Dickinson) at a density of 15 000 cells per well and grown in the incubator for 18 hours. On the next day the media was aspirated and replaced with the cell loading buffer (HBSS—(Invitrogen) based buffer containing calcium indicator and signal enhancer from a commercial Ca2+ assay kit (Becton Dickinson). The plates were incubated for 60 minutes in the incubator, the test compounds were added and the plates equilibrated for 20 minutes at room temperature.
Plates were placed into FLIPR and the CXCR3 agonist (I-TAC, 100 nM) stimulated fluorescence change was quantitated. The activity of CXCR3 antagonists was determined as percent of the CXCR3 ligand I-TAC in the absence of the test compounds (=100% activity).

For `COC(=O)C(Cc1ccc(O)cc1)NC(=O)c1ccc(CN(Cc2ccccn2)S(=O)(=O)c2ccc(Cl)cc2)cc1` (stereo not shown) [Example 345], the IC50 amounted to 18 µM.
For the molecule `N#Cc1ccc(CN(CCCc2ccccc2)S(=O)(=O)c2ccc(Cl)cc2)cc1` [Example 198], the IC50 was found to be 3.1 µM.
Take `Cc1ccccc1S(=O)(=O)N(Cc1ccc(C#N)cc1)Cc1ccccn1` [Example 287]: the IC50 is 7 µM.
On to `O=C(NC1(c2ccccc2)CC1)c1ccc(CN(Cc2cnccn2)S(=O)(=O)c2ccc(Cl)cc2)cc1` [Example 187], for which the IC50 was 4 µM.
The result for `CCOc1ccc(S(=O)(=O)N(Cc2ccc(C(=O)NCC(C)c3ccccc3)cc2)Cc2cccnc2)cc1` (stereo not shown) [Example 206] reads 4.5 µM.
Consider `CCOc1ccc(S(=O)(=O)N(Cc2ccc(C(=O)OC)c(O)c2)Cc2ccccn2)cc1` [Example 353], for which the IC50 turned out to be 6 µM.
The same measure for `O=C(NC1(c2ccc(OC(F)(F)F)cc2)CC1)c1ccc(CN(Cc2ccccn2)S(=O)(=O)c2ccc(Cl)cc2)cc1` [Example 131]: 5 µM; for `N#Cc1ccc(CCN(Cc2ccccn2)S(=O)(=O)c2ccc(Cl)cc2)cc1` [Example 286, 4-Chloro-N-[2-(4-cyano-phenyl)-ethyl]-N-pyridin-2-ylmethyl-benzenesulfonamide]: 4 µM.
On to `CN(C)c1ccc(CNC(=O)c2ccc(CN(Cc3ccccn3)S(=O)(=O)c3ccc(C#N)cc3)cc2)cn1` [Example 148], for which the IC50 amounted to 3 µM.
As to `CCOc1ccc(C2(NC(=O)c3ccc(CN(Cc4ccccn4)S(=O)(=O)c4ccc(OCC)cc4)cc3)CC2)cc1` [Example 130], the IC50 came to 3 µM.
Consider `CCOc1ccc(S(=O)(=O)N(Cc2ccc(Oc3ccncc3)cc2)Cc2ccccn2)cc1` [Example 270], for which the IC50 was 6 µM.
As to `O=S(=O)(c1ccc(Cl)cc1Cl)N(Cc1ccc(-c2nnn[nH]2)cc1)Cc1ccccn1` [Example 78], the IC50 is 3 µM.
Turning to `Cc1cc(S(=O)(=O)N(Cc2ccc(-c3nnn[nH]3)cc2)Cc2ccccn2)c(F)cc1Cl` [Example 79], the IC50 amounted to 4 µM.
Take `CCOc1ccc(C2(NC(=O)c3ccc(CN(Cc4ccccn4)S(=O)(=O)c4ccc(Cl)cc4)cc3)CC2)cc1` [Example 128]: the IC50 turned out to be 0.85 µM.
For `N#Cc1ccc(S(=O)(=O)N(Cc2ccc(C(=O)NC3(c4ccc(OC(F)(F)F)cc4)CC3)cc2)Cc2ccccn2)cc1` [Example 282], the IC50 was 5.5 µM.
Turning to `CCOC(=O)c1ccc(CN(Cc2cccnc2)S(=O)(=O)c2ccc(C#N)cc2)cc1` [Example 156], the IC50 turned out to be 1.9 µM.
As to `O=C(NCc1ccccc1)c1ccc(CN(Cc2ccccc2)S(=O)(=O)c2ccc(F)cc2)cc1` [Example 32], the IC50 was found to be 3.9 µM.
Regarding `CCOc1ccc(S(=O)(=O)N(Cc2ccc(C(=O)N[C@H]3[C@@H]4CN(C(=O)c5ccc(OC(F)(F)F)cc5)C[C@@H]43)cc2)Cc2cccnc2)cc1` [Example 116], the IC50 is 2 µM.
Take `O=S(=O)(c1ccc(Cl)cc1)N(Cc1ccccc1)Cc1cccc(-c2nnn[nH]2)c1` [Example 234]: the IC50 came out at 1.5 µM.
`Cc1ccc(S(=O)(=O)N(Cc2ccc(C#N)cc2)Cc2ccccn2)cc1` [Example 174]: the IC50 was 1.5 µM.
For the molecule `O=C(NCc1ccccc1)c1ccc(CN(Cc2ccccc2)S(=O)(=O)c2ccc(Cl)nc2)cc1` [Example 36], the IC50 was 0.15 µM.
On to `O=S(=O)(c1cccc(Oc2ccccc2)c1)N(Cc1ccc(-c2nnn[nH]2)cc1)Cc1ccccn1` [Example 165], for which the IC50 was found to be 1.1 µM.
In the case of `CC(C)(C)OC(=O)N[C@@H](C(=O)Nc1ccc(CN(Cc2ccccn2)S(=O)(=O)c2ccc(Cl)cc2)cc1)c1ccccc1` [Example 180], the IC50 was determined as 1 µM.
In the case of `CCOc1ccc(S(=O)(=O)N(Cc2ccc(C(=O)N[C@H]3[C@@H]4CN(C(=O)c5ccc(OC(F)(F)F)cc5)C[C@@H]43)cc2)Cc2ccccn2)cc1` [Example 117, 4-{[(4-Ethoxy-benzenesulfonyl)-pyridin-2-ylmethyl-amino]-methyl}-N-[(1S,5R,6S)-3-(4-trifluoromethoxy-benzoyl)-3-aza-bicyclo[3.1.0]hex-6-yl]-benzamide], the IC50 was determined as 0.8 µM.
For the molecule `COc1cccc(CN(Cc2ccc(C(=O)NCc3ccccc3)cc2)S(=O)(=O)c2ccc(Cl)cc2)c1` [Example 38, 4-{[(4-Chloro-benzenesulfonyl)-(3-methoxybenzyl)-amino]-methyl}-N-phenyl methyl benzamide], the IC50 is 10 µM.
As for `N#Cc1ccc(C(=O)N(Cc2ccccn2)S(=O)(=O)c2ccc(Cl)cc2)cc1` [Example 281, 4-Chloro-N-(4-cyano-benzoyl)-N-pyridin-2-ylmethyl-benzenesulfonamide], the IC50 was 7 µM.
`N#Cc1ccc(CN(Cc2ccccn2)S(=O)(=O)c2ccccc2[N+](=O)[O-])cc1` [Example 173]: the IC50 was found to be 0.4 µM.
`CC(C)(C)c1ccc(S(=O)(=O)N(Cc2ccc(-c3nnn[nH]3)cc2)Cc2ccccn2)cc1` [Example 141]: the IC50 amounted to 3 µM.
As for `CCOc1ccc(S(=O)(=O)N(Cc2ccc(C(=O)NCC(C)c3ccccc3)cc2)Cc2ccccn2)cc1` (stereo not shown) [Example 86], the IC50 was determined as 1.7 µM.
The result for `CCOc1ccc(C2(NC(=O)c3ccc(CN(Cc4ccccn4)S(=O)(=O)c4ccc(C#N)cc4)cc3)CC2)cc1` [Example 129] reads 2.5 µM; that for `COC(C(=O)Nc1ccc(CN(Cc2ccccn2)S(=O)(=O)c2ccc(Cl)cc2)cc1)c1ccccc1` (stereo not shown) [Example 182], 0.04 µM; that for `O=S(=O)(c1ccc(Cl)cc1)N(Cc1ccc(-c2nnn[nH]2)cc1)Cc1ccccc1Oc1ccc(F)cc1` [Example 104], 1 µM.
The same measure for `O=C(NS(=O)(=O)C1CC1)c1ccc(CN(Cc2ccccn2)S(=O)(=O)c2ccc(Cl)cc2)cc1` [Example 49, N-(cyclopropanesulfonyl)-4-{[[(4-chlorophenyl)sulfonyl](pyridin-2-ylmethyl)amino]methyl}benzamide]: 5.6 µM; for `O=S(=O)(c1ccc(Cl)cc1)N(Cc1ccc(-c2nnn[nH]2)cc1)Cc1ccc(Cl)cc1F` [Example 70, 4-chloro-N-(2-fluoro-4-chlorobenzyl)-N-[4-(2H-tetrazol-5yl)benzyl]benzene sulfonamide]: 3 µM; for `O=S(=O)(c1ccc(Cl)cc1)N(CCc1ccccc1)Cc1ccc(-c2nnn[nH]2)cc1` [Example 204]: 2.01 µM.
For the molecule `O=S(=O)(c1ccc(OC(F)(F)F)cc1)N(Cc1ccccc1)Cc1ccc(-c2nnn[nH]2)cc1` [Example 115], the IC50 amounted to 2 µM.
For `CC(c1ccc(-c2nnn[nH]2)cc1)N(Cc1ccccc1)S(=O)(=O)c1ccc(Cl)cc1` (stereo not shown) [Example 171], the IC50 stood at 1.95 µM.
On to `O=C(N[C@H](Cc1ccccc1)C(=O)O)c1ccc(CN(Cc2ccccn2)S(=O)(=O)c2ccc(Cl)cc2)cc1` [Example 153], for which the IC50 was found to be 2 µM.
As to `O=S(=O)(c1ccc(Cl)cc1)N(Cc1ccccc1)Cc1ccccc1-c1nnn[nH]1` [Example 229], the IC50 was determined as 1.6 µM.
On to `O=C(Nc1ccc(CN(Cc2ccccn2)S(=O)(=O)c2ccc(Cl)cc2)cc1)C(O)c1cccc(Cl)c1` (stereo not shown) [Example 184], for which the IC50 worked out at 1 µM.
In the case of `Cc1cccc(S(=O)(=O)N(Cc2ccc(-c3nnn[nH]3)cc2)Cc2ccccn2)c1` [Example 311], the IC50 turned out to be 10 µM.
Turning to `CCS(=O)(=O)NC(=O)c1ccc(CN(Cc2ccccn2)S(=O)(=O)c2ccc(Cl)cc2)cc1` [Example 55, N-(ethanesulfonyl)-4-{[[(4-chlorophenyl)sulfonyl](pyridin-2-yl-methyl)amino]methyl}benzamide], the IC50 was 11 µM.
`CCOC(=O)c1ccc(CN(Cc2cccnc2)S(=O)(=O)c2ccc(OCC)cc2)cc1` [Example 155]: the IC50 amounted to 2 µM.
The result for `O=S(=O)(c1ccc(Cl)cc1)N(Cc1ccc(-c2nnn[nH]2)cc1)Cc1ccccc1-n1cccn1` [Example 280] reads 20 µM; that for `O=C(O)c1ccc(CN(Cc2cnccn2)S(=O)(=O)c2ccc(Cl)cc2)cc1` [Example 319], 20 µM; that for `O=C(O)c1ccc(CNC(=O)c2ccc(CN(Cc3ccccn3)S(=O)(=O)c3ccc(Cl)cc3)cc2)cc1` [Example 133], 2 µM.
As to `O=C(N[C@@H](Cc1ccc(O)cc1)C(=O)O)c1ccc(CN(Cc2ccccn2)S(=O)(=O)c2ccc(Cl)cc2)cc1` [Example 154], the IC50 amounted to 4 µM.
`CC(C)(Cc1ccccc1)N(Cc1ccc(-c2nnn[nH]2)cc1)S(=O)(=O)c1ccc(Cl)cc1` [Example 236]: the IC50 turned out to be 3 µM.
The result for `COc1ccc(CN(Cc2ccc(C(=O)NCc3ccccc3)cc2)S(=O)(=O)c2ccc(Cl)cc2)cc1` [Example 35, 4-{[(4-Chloro-benzenesulfonyl)-(4-methoxybenzyl)-amino]-methyl}-N-phenyl methyl benzamide] reads 6 µM.
